Two compounds from patent publication US5002958A, “Hypotensive agent” (priority 1987, dated 1991) can be followed below.

Counter-ions that a name gives are not always drawn. Some results are limits rather than exact numbers.

In data set [1] the test system is dogs suffering from Goldblatt hypertension. The data set can be described thus: Effect of single oral administration on blood pressure of dogs suffering from Goldblatt hypertension. It counts as in vivo, Female beagles. Particulars: 10 mg/kg oral; for reduction in the blood pressure / blood pressure after 3 h: once, after 3 h; for reduction in the blood pressure: result in words; for blood pressure after 3 h / blood pressure before administration: systolic pressure; for blood pressure after 3 h: control group 201±3 mmHg, unchanged after 5 h; for blood pressure before administration: artery of the tail. As to the method: Nicardipine hydrochloride was used as a control. The dose was 5 ml/kg.

The test system is the same in data set [2]. The following applies: 10 mg/kg oral.
Procedure: Nicardipine hydrochloride was used as a control. The dose was 5 ml/kg. Commercially available tablets were given as they were by oral administration. Female beagles suffering from Goldblatt hypertension of "one clip one kidney" type were used. […] The blood pressure and heart rate were measured in the artery of the tail of each dog in a closed manner with a device for continuously measuring the systolic pressure (SCS-301; a product of Shimadzu Seisakusho Ltd.). […] The effects of eperisone hydrochloride given once by oral administration on the blood pressure and heart beat were compared with those of nicardipine hydrochloride. The nine beagles were divided into three groups, i.e. a control group, a group to which 10 mg/kg of eperisone hydrochloride was given and another group to which 10 mg/kg of nicardipine hydrochloride was given. Nine beagles were subjected to the tests of all three groups. Namely, administration was discontinued at intervals of one week according to Latin square. The blood pressure and heart rate were measured before administration and then at specified intervals from one hour to five hours after administration. The analysis of variance was conducted by the time series analysis. The test groups were compared with the control group by Dunnet's method.
A short description of data set [3]: Solubility (physico-chemical properties). It counts as physicochemical.
Data set [4] in a line: Acute toxicity (LD50) in mice. Particulars: mouse, in vivo, Mice (ICR).
Data set [5] in a line: Acute toxicity (LD50) in dogs. Particulars: dog, in vivo, po, Dogs (Beagles).
A short description of data set [6]: Acute toxicity (LD50) in rats. Particulars: rat, in vivo, Rats (SD).

For `COC(=O)C1=C(C)NC(C)=C(C(=O)OCCN(C)Cc2ccccc2)C1c1cccc([N+](=O)[O-])c1` (stereo not drawn) [nicardipine hydrochloride, Nicardipine hydrochloride, reference compound], in data set [1], the “reduction in the blood pressure” value is listed as “a significant reduction in the blood pressure was also observed”, the “blood pressure after 3 h” value is given as 164±4 mmHg and the “blood pressure before administration” value was 200±4 mmHg. In addition, the “heart rate before administration” value in data set [2] is 106±7 beats/min.

Regarding `CCc1ccc(C(=O)C(C)CN2CCCCC2)cc1` (stereo not drawn) [eperisone hydrochloride, Eperisone hydrochloride], in data set [3] (acetic anhydride), the “solubility in acetic anhydride” value is listed as “relatively difficultly soluble”. Moreover, the solubility in acetone entry in data set [3] (acetone) is listed as “difficultly soluble”. The solubility in ethanol entry in data set [3] (ethanol) was “relatively easily soluble”. In addition, in data set [3] (ether), the solubility in ether entry is recorded as “scarcely soluble”. In addition, the “solubility in water, methanol, chloroform or glacial acetic acid” value in data set [3] (water, methanol, chloroform or glacial acetic acid) is on record as “easily soluble”. In data set [3] (water, agents used in the pharmacological experiment), the solubility in water entry is “water-soluble”. The “reduction in the blood pressure” value in data set [1] was “a significant reduction in the blood pressure was observed”. Further, the “blood pressure after 3 h” value in data set [1] is recorded as 172±3 mmHg. Besides, the “blood pressure before administration” value in data set [1] was 202±4 mmHg. The “heart rate before administration” value in data set [2] worked out at 97±5 beats/min. Also, the median lethal dose (LD50) is 43.5 mg/kg in data set [4] (iv, female); 43 mg/kg in data set [4] (iv, male); 940 mg/kg in data set [4] (po, female); 1040 mg/kg in data set [4] (po, male); above 750 mg/kg in data set [5] (female); above 1080 mg/kg in data set [5] (male). Further, the 50% lethal dose (LD50) in data set [6] (iv, female) is 60 mg/kg; in data set [6] (iv, male), 51 mg/kg; in data set [6] (po, female), 1300 mg/kg; in data set [6] (po, male), 1300 mg/kg.

One may read the LD50 as the dose at which mortality reaches 50%. The low end stands for a more toxic substance, the high end for a less toxic substance.
